Target: T1, human phospho-Mek1 / non-phosphorylated Mek1 (Homo sapiens, UniProt Q02750)
T1 construct: GST (N); His6 (C); purchased Upstate 14-429 (phospho-Mek1) or 14-420 (non-phosphorylated Mek1)
Experiment: In vitro Mek1 Kinase Assay
Format: biochemical
Conditions: recombinant GST/His6-tagged Mek1, 2 μM ATP, 2 hours at 30° C., PKLight luminescence readout
Description: In vitro Mek1 Kinase Assay
2.5 μl of Mek1 kinase buffer (10 mM MOPS [pH 7.2], 25 mM sodium glycerophosphate, 5 mM EGTA [pH 8.0], 1 mM sodium orthovanadate, 1 mM dithiothreitol, 10 mM MgCl2, 0.1% Brij-35, 0.3 mg/ml bovine serum albumin) containing either 5 ng of high specific activity, recombinant N-terminal GST-tagged, C-terminal His6-tagged human phospho-Mek1 (Upstate Cat. 14-429), or 200 ng of low specific activity, non-phosphorylated Mek1 (Upstate Cat. 14-420), is dispensed into one well of a 1536 multi-well white solid plate. 50 nl of 100× concentration of test compound in dimethyl sulfoxide (DMSO) is dispensed to the well by passive pin transfer and incubated for 15 minutes at room temperature (22° C.). 2.5 μl of Mek1 kinase buffer containing 2 μM ATP is then dispensed and the kinase reaction is allowed to incubate at 30° C. for 2 hours. The assay plates are lidded and maintained in a humidified environment. After 2 hours, 2.5 μl of PKLight protein kinase assay reagent (Cambrex) is dispensed. After an additional 5 minute incubation at room temperature, luminescence activity is measured on a suitable multi-mode plate reader. Inhibition of Mek1 kinase causes an associated increase in luminescence activity that is proportional to compound concentration. Negative control activity is measured with DMSO lacking any test compound. Positive control activity is measured with (R)—N— (2,3-dihydroxypropoxy)-3,4-fluoro4-iodophenylamino)benzamide [Thompson, N. and Lyons, J., Curr Opin Pharmacol, 5:350-356, 2005 (PD-0325901)]. Efficacy is measured as a percentage of positive control activity.

T1 sequence (Q02750 whole entry): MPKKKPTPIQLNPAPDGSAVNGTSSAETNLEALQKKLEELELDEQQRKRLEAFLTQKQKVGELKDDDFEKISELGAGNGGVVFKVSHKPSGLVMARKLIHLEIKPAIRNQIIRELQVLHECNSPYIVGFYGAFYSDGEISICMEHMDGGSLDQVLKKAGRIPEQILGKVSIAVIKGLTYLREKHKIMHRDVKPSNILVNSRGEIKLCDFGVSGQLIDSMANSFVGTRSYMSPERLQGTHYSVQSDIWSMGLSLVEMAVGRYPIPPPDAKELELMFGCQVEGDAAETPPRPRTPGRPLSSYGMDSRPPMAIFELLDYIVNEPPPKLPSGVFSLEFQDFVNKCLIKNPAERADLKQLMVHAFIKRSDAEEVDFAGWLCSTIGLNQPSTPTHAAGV

## c1ccc2c(c1)[nH]c1ncnc(N3CCOCC3)c12 [Example 1, 4-(9H-pyrimido[4,5-b]indol-4-yl)morpholine]
  IC50: ≤ 10 µM

## Cc1c([N+](=O)[O-])c2ccc(O)cc2n1-c1ccccc1 [Example 2, 2-methyl-3-nitro-1-phenyl-1H-indol-6-ol]
  IC50: ≤ 10 µM

## CC(C)(C)n1nc(-c2ccc(F)cc2)c2c(N)ncnc21 [Example 3, 1-tert-butyl-3-(4-fluorophenyl)-1H-pyrazolo[3,4-d]pyrimidin-4-amine]
  IC50: ≤ 10 µM

## CCN(c1ncnc2[nH]cnc12)C1CCCCC1 [Example 4, N-cyclohexyl-N-ethyl-9H-purin-6-anime]
  IC50: ≤ 10 µM

## c1ccc2c(c1)CCN2c1ncnc2[nH]cnc12 [Example 5, 6-(indolin-1-yl)-9H-purine]
  IC50: > 10 µM

## CC1CCN(c2ncnc3[nH]cnc23)CC1 [Example 6, 6-(4-methylpiperidin-1-yl)-9H-purine]
  IC50: > 10 µM

## COc1cc(OC)c2c(c1)ncc1c(C)nn(-c3ccccc3)c12 [Example 7, 7,9-dimethoxy-3-methyl-1-phenyl-1H-pyrazolo[4,3-c]quinoline]
  IC50: ≤ 10 µM

## CC(=O)c1ccc(-c2cnc3ccc(NCc4cccs4)nn23)s1 [Example 8, 1-(5-(6-(thiophen-2-ylmethylamino)imidazo[1,2-b]pyridazin-3-yl)thiophen-2-yl)ethanone]
  IC50: > 10 µM

## O=C(O)c1ccc(-c2cnc3ccc(NCc4cccs4)nn23)cc1 [Example 9, 4-(6-(thiophen-2-ylmethylamino)imidazo[1,2-b]pyridazin-3-yl)benzoic acid]
  IC50: ≤ 10 µM

## O=C(O)c1ccc(-c2cnc3ccc(NCc4ccc(F)cc4)nn23)cc1 [Example 10, 4-(6-(4-fluorobenzylamino)imidazo[1,2-b]pyridazin-3-yl)benzoic acid]
  IC50: ≤ 10 µM

## Cn1cc(-c2cnc3ccc(NCc4cccs4)nn23)cn1 [Example 11]
  IC50: ≤ 10 µM

## N#Cc1ccc(-c2cnc3ccc(NC4CCOCC4)nn23)cc1 [Example 12, 4-(6-(tetrahydro-2H-pyran-4-ylamino)imidazo[1,2-b]pyridazin-3-yl)benzonitrile]
  IC50: ≤ 10 µM

## O=C(O)c1ccc(-c2cnc3ccc(NC4CCOCC4)nn23)cc1 [Example 13, 4-(6-(tetrahydro-2H-pyran-4-ylamino)imidazo[1,2-b]pyridazin-3-yl)benzoic acid]
  IC50: ≤ 10 µM

## COc1cncc(-c2cnc3ccc(NC4CCOCC4)nn23)c1 [Example 14, 3-(5-methoxypyridin-3-yl)-N-(tetrahydro-2H-pyran-4-yl)imidazo[1,2-b]pyridazin-6-amine]
  IC50: > 10 µM

## O=C(O)c1ccc(-c2cnc3ccc(NC4CCC(O)CC4)nn23)cc1 (stereo not shown) [Example 15, 4-(6-(4-hydroxycyclohexylamino)imidazo[1,2-b]pyridazin-3-yl)benzoic acid]
  IC50: ≤ 10 µM

## c1nc(NC2CCCC2)c2nc[nH]c2n1 [Example 16, N-cyclopentyl-9H-purin-6-amine]
  IC50: > 10 µM

## c1nc2nc[nH]c(NC3CCCCCC3)c-2n1 [Example 17, N-cycloheptyl-9H-purin-6-amine]
  IC50: > 10 µM

## N#Cc1ccc(-c2cnc3ccc(NCCCO)nn23)cc1 [Example 18, 4-(6-(3-hydroxypropylamino)imidazo [1,2-b]pyridazin-3-yl)benzonitrile]
  IC50: ≤ 10 µM

## N#Cc1ccc(-c2cnc3ccc(NCCc4ccccn4)nn23)cc1 [Example 19, 4-(6-(2-(pyridin-2-yl)ethylamino)imidazo[1,2-b]pyridazin-3-yl)benzonitrile]
  IC50: ≤ 10 µM

## N#Cc1ccc(-c2cnc3ccc(NCCc4cccnc4)nn23)cc1 [Example 20, 4-(6-(2-(pyridin-3-yl)ethylamino)imidazo[1,2-b]pyridazin-3-yl)benzonitrile]
  IC50: ≤ 10 µM

## CN(C)CCNc1ccn2ncc(-c3ccc(Cl)cc3)c2n1 [Example 21, N1-(3-(4-chlorophenyl)pyrazolo[1,5-a]pyrimidin-5-yl)-N2,N2-dimethylethane-1,2-diamine]
  IC50: > 10 µM

## CCCNc1ccc2ncc(-c3ccc(C(=O)O)cc3)n2n1 [Example 22, 4-(6-(propylamino)imidazo[1,2-b]pyridazin-3-yl)benzoic acid]
  IC50: > 10 µM

Reference: patent US20070049591A1, “Inhibitors of MAPK/Erk Kinase” (KALYPSYS, INC., priority 2005, published 2007)
